What was measured:
[1] = Solid form stability to humidity and drying; type: physicochemical; settings: for stability to drying: 50° C. (under vacuum) where stated
Procedure: In one aspect, the present disclosure provides a process for preparing crystalline Form A, Form B or Form C. In a particular aspect, Form A can be obtained by slurrying in alcohols, acetone, and acetonitrile or Form A was prepared by evaporative crystallization in multiple solvents and cooling crystallization in isopropanol and 1-propanol. Form A can also be produced by recrystallization in acetone:water. Form C can be obtained by recrystallizing Compound (I) in various water containing solvent systems (acetone:water, methanol:water, isopropanol:water, dimethylacetamide:water, tetrahydrofuran:water). Form C was stable drying at 50° C. under vacuum, and converted to Form B (anhydrous) upon heating to 150° C. […] Form C was not as hygroscopic as Form A during the dynamic vapor sorption measurements, gaining only 1.44% water.

[2] = Solubility of pralsetinib and its solid forms; type: physicochemical; settings: for solubility in simulated gastric fluid: simulated gastric fluid (possibly due to conversion to HCl salt)
[3] = Dynamic Vapor Sorption (DVS); type: physicochemical; settings: for total mass change by DVS: between 2% and 95% relative humidity
Procedure: Dynamic Vapor Sorption (DVS) was done using a DVS Intrinsic 1. The sample is loaded into a sample pan and suspended from a microbalance. A typical sample mass for DVS measurement is 25 mg. Nitrogen gas bubbled through distilled water provides the desired relative humidity. A typical measurement comprises the steps: • 1—Equilibrate at 50% RH • 2—50% to 2%. (50%, 40%, 30%, 20%, 10% and 2%) • a. Hold minimum of 5 mins and maximum of 60 minutes at each humidity. The pass criteria is less than 0.002% change • 3 —2% to 95% (2%, 10%, 20%, 30%, 40%, 50%, 60%, 70%, 80%, 90%, 95%) • a. Hold minimum of 5 mins and maximum of 60 minutes at each humidity. The pass criteria is less than 0.002% change • 4—95% to 2% (95%, 80%, 70%, 60%, 50%, 40%, 30%, 20%, 10%, 2%) • a. Hold minimum of 5 mins and maximum of 60 minutes at each humidity. The pass criteria is less than 0.002% change • 5—2% to 50% (2%, 10%, 20%, 30%, 40%, 50%) • a. Hold minimum of 5 mins and maximum of 60 minutes at each humidity. The pass criteria is less than 0.002% change

[4] = Competitive slurry experiments; type: physicochemical
[5] = system: NSCLC and thyroid cancer xenografts driven by various RET mutations and fusions; settings: in vivo; cited from earlier work
[6] = system: VEGFR2; settings: in vivo; cited from earlier work
[7] = Accelerated stability for 4 weeks at 40° C./75% RH; type: physicochemical; settings: Compositions 1-3
Procedure: The manufacturing process for the Compositions 1-3 are as follows: • 1) Intragranular components were blended in a suitably sized contained using the Turbula blender for 3 minutes at 23 rpm • 2) Intragranular blend was dry granulated by densification using a Riva minipress fitted with 22×9 mm caplet tooling • 3) Resultant material was milled using a Comil 193 fitted with 991 μm screen 4) Granule bulk density was determined and if not within 0.55-0.6 g/mL, densification and milling repeated until the desired bulk density was achieved • 5) Extragranular components were blend with the granules in a Turbula blender for 2 minutes at 23 rpm • 6) Final blend was hand filled in to Size 0 HPMC Capsules (Vcaps® Plus) • 7) Capsules were packed into 60 mL HDPE bottles with 4 g desiccant cap at a count of 30 capsules per bottle • 8) Packed product was placed on accelerated stability for 4 weeks at 40° C./75% RH

With COC1(C(=O)NC(C)c2ccc(-n3cc(F)cn3)nc2)CCC(c2nc(C)cc(Nc3cc(C)[nH]n3)n2)CC1.Cl (centres unmarked) [Form I] the stability to drying [1] was “stable to drying” and the “behaviour at elevated humidity / humidification” value [1] was “deliquesced”.
In the case of COC1(C(=O)NC(C)c2ccc(-n3cc(F)cn3)nc2)CCC(c2nc(C)cc(Nc3cc(C)[nH]n3)n2)CC1.Cl (centres unmarked) [Form III], the “behaviour at elevated humidity / humidification” value [1] is reported as “stable to humidification”.
For CO[C@]1(C(=O)N[C@@H](C)c2ccc(-n3cc(F)cn3)nc2)CC[C@H](c2nc(C)cc(Nc3cc(C)[nH]n3)n2)CC1 [Form A, (cis)-N—((S)-1-(6-(4-fluoro-1H-pyrazol-1-yl)pyridin-3-yl)ethyl)-1-methoxy-4-(4 methyl-6-(5-methyl-1H-pyrazol-3-ylamino)pyrimidin-2-yl)cyclohexanecarboxamide], the “solubility in simulated gastric fluid” value [2] was “high solubility”, the “solubility in simulated intestinal fluid” value [2] was “low solubility” and the solubility in water [2] was “low solubility”. The “reversible mass change by DVS” value ([3]; between 2-95% relative humidity) was “about 10%”, the “conversion on prolonged humidity exposure” value ([1]; prolonged humidity exposure) was “did not convert to Form C” and the “form conversion in competitive slurry, methanol:water” value ([4]; methanol:water at high ratios of water to methanol and lower temperatures) was “converted to Form C”.
For CO[C@]1(C(=O)N[C@@H](C)c2ccc(-n3cc(F)cn3)nc2)CC[C@H](c2nc(C)cc(Nc3cc(C)[nH]n3)n2)CC1 [Form C, (cis)-N—((S)-1-(6-(4-fluoro-1H-pyrazol-1-yl)pyridin-3-yl)ethyl)-1-methoxy-4-(4 methyl-6-(5-methyl-1H-pyrazol-3-ylamino)pyrimidin-2-yl)cyclohexanecarboxamide], the “solubility in simulated gastric fluid” value [2] was “high solubility”, the “solubility in simulated intestinal fluid” value [2] was “lower solubility than Form A” and the solubility in water [2] was “lower solubility than Form A”. For the same compound, the “water gained during dynamic vapor sorption measurements” value [3] was 1.44%, the “total mass change by DVS” value [3] was 1.4 wt. % and the “stability by X-ray powder diffraction during humidity testing” value ([1]; 75% relative humidity and 40° C. for one week, and cycling down to 2% relative humidity by DVS) was “remained stable”. For the same compound, the “form conversion in competitive slurry, acetone and isopropanol” value ([4]; acetone and isopropanol) was “converted to Form A”.
For CO[C@]1(C(=O)N[C@@H](C)c2ccc(-n3cc(F)cn3)nc2)CC[C@H](c2nc(C)cc(Nc3cc(C)[nH]n3)n2)CC1 [Form B, (cis)-N—((S)-1-(6-(4-fluoro-1H-pyrazol-1-yl)pyridin-3-yl)ethyl)-1-methoxy-4-(4 methyl-6-(5-methyl-1H-pyrazol-3-ylamino)pyrimidin-2-yl)cyclohexanecarboxamide], the “total mass change by DVS” value [3] was 1.4 wt. %.
In the case of CO[C@]1(C(=O)N[C@@H](C)c2ccc(-n3cc(F)cn3)nc2)CC[C@H](c2nc(C)cc(Nc3cc(C)[nH]n3)n2)CC1 [pralsetinib, (cis)-N—((S)-1-(6-(4-fluoro-1H-pyrazol-1-yl)pyridin-3-yl)ethyl)-1-methoxy-4-(4 methyl-6-(5-methyl-1H-pyrazol-3-ylamino)pyrimidin-2-yl)cyclohexanecarboxamide], the aqueous solubility [2] is listed as “low aqueous solubility”, the “solubility in acidic pH” value ([2]; acidic pH (pH 1.2 medium)) is listed as “relatively high solubility” and the growth of xenografts [5] is listed as “potently inhibits growth”. For the same compound, the “inhibition of VEGFR2” value [6] was “without inhibiting” and the “physical form by XRPD after storage” value [7] was “remains as an amorphous solid dispersion”.
With CO[C@]1(C(=O)N[C@@H](C)c2ccc(-n3cc(F)cn3)nc2)CC[C@H](c2nc(C)cc(Nc3cc(C)[nH]n3)n2)CC1.Cl [Form II] the stability to drying [1] was “converted to Form III”.

Source: US12692251B2, “Pralsetinib pharmaceutical compositions” (Rigel Pharmaceuticals, Inc., priority 2020, dated 2026)
